Measured values published in patent US4146536A, “Nocardicin E and F, and process for production thereof” (Fujisawa Pharmaceutical Co., Ltd., priority 1975, dated 1979).
≈ marks a conversion by molar mass, not a printed value.

Columns and labels:
Solubility = type: physicochemical
[1] = tested on: Escherichia coli NIHJ JC-2; test: Minimum Inhibitory Concentration (M.I.C.), serial agar dilution; type: cell-based; details: NIHJJC2, Mueller Hinton agar, inoculum 10^6 cells/ml, 37° C., 20 hours
Method: (§1) Minimum Inhibitory Concentration (M.I.C.)
(§2) M.I.C. test was conducted by a usual serial agar dilution method, using Mueller Hinton agar (Inoculum: 10^6 cells/ml) which was incubated at 37° C. for 20 hours. M.I.C. value is expressed as the minimum concentration of the Nocardicin E or F (mcg/ml) which inhibits growth of the microorganism.

[2] = tested on: Pseudomonas aeruginosa NCTC10490; test: as above; type: cell-based; details: Mueller Hinton agar, inoculum 10^6 cells/ml, 37° C., 20 hours
Method: as §1, §2

[3] = tested on: Staphylococcus aureus 209P; test: as above; type: cell-based; details: Mueller Hinton agar, inoculum 10^6 cells/ml, 37° C., 20 hours
Method: as §1, §2

[4] = tested on: Bacillus subtilis ATCC6633; test: as above; type: cell-based; details: Mueller Hinton agar, inoculum 10^6 cells/ml, 37° C., 20 hours
Method: as §1, §2

[5] = aqueous alkaline solution (Nocardicin E: e.g. aqueous ammonia, aqueous sodium hydroxide solution)

Row | Solubility (Solubility; C2 H5 OH) | Solubility (Solubility; CH3 COCH3) | Solubility (Solubility; CH3 COOC2 H5) | Solubility (Solubility; CH3 OH) | Solubility (Solubility; CHCl3) | Solubility (Solubility; [5]) | Solubility (Solubility; dimethylsulfoxide) | Solubility (Solubility; pyridine) | MIC [1] | MIC [2] | MIC [3] | MIC [4] | SMILES
1 | Sparing soluble | Insoluble | Insoluble | Sparing soluble | Insoluble | Highly soluble | Highly soluble | Highly soluble | > 400 µg/mL | 100 µg/mL (≈ 250 µM) | > 400 µg/mL | > 400 µg/mL | O=C(NC1CN(C(C(=O)O)c2ccc(O)cc2)C1=O)/C(=N/O)c1ccc(O)cc1 (stereo not drawn) [Nocardicin F]
2 | Sparingly soluble | Insoluble | Insoluble | Sparingly soluble | Insoluble | Highly soluble | Highly soluble | Highly soluble | > 400 µg/mL | 12.5 µg/mL (≈ 31.3 µM) | > 400 µg/mL | > 400 µg/mL | O=C(NC1CN(C(C(=O)O)c2ccc(O)cc2)C1=O)/C(=N\O)c1ccc(O)cc1 (stereo not drawn) [Nocardicin E]
